Data: PubChem BioAssay (NCI)
Values joined by “and” are separate entries in the source; they are usually repeats but may differ in a detail not shown here. Identical values can stand only once.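 Protocol summary: plate cells (96-well), add compound at 5 concentrations, incubate 48 h, interpolate endpoints linearly. At the GI50, growth is halved. Definition used: TGI = concentration required for complete inhibition of growth.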

What was measured:
Assay in all cases: NCI tumour cell line growth inhibition, 48 h
SNB-75 CNS = test system: SNB-75 CNS
HL-60(TB) leukemia = test system: HL-60(TB) leukemia
SK-MEL-2 melanoma = test system: SK-MEL-2 melanoma
DU-145 prostate = test system: DU-145 prostate
HCT-15 colon = test system: HCT-15 colon
HOP-92 NSCLC = test system: HOP-92 NSCLC
CAKI-1 renal = test system: CAKI-1 renal
SF-268 CNS = test system: SF-268 CNS
NCI/ADR-RES ovarian = test system: NCI/ADR-RES ovarian
UO-31 renal = test system: UO-31 renal
IGROV1 ovarian = test system: IGROV1 ovarian

SMILES: c1ccc2c(c1)[nH]c1c2nc2sccn21
- GI50 (SNB-75 CNS): 20.6 µM and 44.8 µM
- TGI (SNB-75 CNS): > 100 µM

SMILES: CCCCCCCCCCC(C[N+](C)(C)C/C=C/c1ccccc1)C(O)c1ccccc1 (configuration not stated)
- GI50 (HL-60(TB) leukemia): 1.1 µM
- TGI (HL-60(TB) leukemia): 2.63 µM
- GI50 (SK-MEL-2 melanoma): 1.75 µM
- TGI (SK-MEL-2 melanoma): 3.24 µM
- GI50 (DU-145 prostate): 1.76 µM
- TGI (DU-145 prostate): 3.37 µM
- GI50 (HCT-15 colon): 2.29 µM
- TGI (HCT-15 colon): 6.31 µM
- GI50 (HOP-92 NSCLC): 0.435 µM
- TGI (HOP-92 NSCLC): 2.08 µM
- GI50 (CAKI-1 renal): 12.2 µM
- TGI (CAKI-1 renal): 34.1 µM
- GI50 (SF-268 CNS): 1.47 µM
- TGI (SF-268 CNS): 3.2 µM
- GI50 (NCI/ADR-RES ovarian): 7.5 µM
- TGI (NCI/ADR-RES ovarian): 34.6 µM
- GI50 (UO-31 renal): 2.09 µM
- TGI (UO-31 renal): 4.51 µM
- GI50 (IGROV1 ovarian): 0.999 µM
- TGI (IGROV1 ovarian): 2.54 µM
